In US20070112176A1, “Lipid membrane structure containing anti-mt-mmp monoclonal antibody” (DAIICHI PHARMACEUTICAL CO., LTD., priority 2003, published 2007):

System: HT1080 cells
Experiment: Cytostatic test of liposomes with various antibody binding ratios, Test Example 6
Assay type: cell-based, human
Details: control group; free DOX 100 μg/mL, used as start value
Procedure: According to the method described in Test Example 2-1), the cytostatic ability of various antibody-binding liposomes was evaluated by using the HT1080 cells. The cells were adhered to a 96-well plate, then added with anti-MT1-MMP monoclonal antibody (clone number: 222-1D8)-binding and anticancer agent-encapsulating liposomes (Fab′(222-1D8)-DOX-LP), and cultured for 1 hour. After the culture, the cells were washed, added with a fresh medium, and further cultured for 24 hours. After the cells were washed and cultured for 24 hours, a cell counting assay was performed, and A450 serving as an index of viable cell count was plotted. Means±S.D. (n=4) was indicated for each group. As control, only the medium (control), anticancer agent-encapsulating liposomes not bound with antibody (DOX-LP (Preparation Example (11)) or the anticancer agent alone (free DOX) was added instead of Fab′(222-1D8)-DOX-LP. A group in which only the medium was similarly treated without adding the cells was used as a blank. It was confirmed by multiple times of experiments that the start value used in the calculation of inhibitory rate and the like in Test Example 2 was not substantially different from the absorbance obtained with 100 μg/mL of DOX alone (free DOX) used as the sample, and therefore the value obtained for the 100 μg/mL free DOX group was used as the start value. […]

SMILES: COc1cccc2c1C(=O)c1c(O)c3c(c(O)c1C2=O)C[C@@](O)(C(=O)CO)C[C@@H]3O[C@H]1C[C@H](N)[C@H](O)[C@H](C)O1 [Free DOX, doxorubicin]
- Cytostatic ratio for HT1080 cells: 100%
